# Test results: ChEMBL document CHEMBL5727696, “Tetrahydroisoquinoline derived PRMT5-inhibitors” (2020)
# Experiment: Revised Biochemical Assay: Full-length PRMT5 enzyme (NCBI Reference sequence NP_006100.2) was co-expressed with Hiss-MEP50 in insect cells and purified via Nickel immobilized metal affinity and gel filtration chromatography (“the enzyme”).The 6 μL reactions are run in Greiner brand black 384-well low volume assay plates. All reactions contained assay buffer (phosphate buffered saline, 0.01% (v/v) Tween-20, 0.01% (w/v) albumin from chicken egg white, 1 mM Dithiothreitol, 1 μM peptide substrate, 1 μM S-Adenosyl methionine, and 15 ng/reaction enzyme, with the enzyme being omitted from negative control reactions. Compounds were added in a volume of 100 nL from dilution series prepared in DMSO, positive and negative control reactions receiving the same volume DMSO without compound. The plates were sealed with adhesive seals and incubated for 4 hours at 37 degree Celsius. Reaction progress was measured using the Transcreener™ EPIGEN methyltransferase assay (BellBrook Labs, Madison, Wis.) as recommended by the manufacturer. To each reaction 2 μL detection mix were added, containing coupling enzymes, fluorescence polarisation tracer, and AMP antibody. Plates were incubated for 90 minutes before being read on a PerkinElmer EnVision plate reader in fluorescence polarisation mode.
smiles,measurement,value
N#Cc1ccc(C(=O)NCCC(O)CN2CCc3ccccc3C2)cc1 (stereo unspecified),IC50,3.98 µM
